Structures can show the parent of a compound that is named as a salt. Marks after values point to notes of the source that are not given here.

The subject of data set [1] is cultured rat hippocampal neurons. Put plainly: NMDA-induced toxicity in cultured rat hippocampal neurons, astrocyte conditioned medium. The following applies: NMDA 100 μM pulse of 10 min. The protocol:
To determine whether or not AIT-082 afforded in vitro neuroprotection, the effect of AIT-082 on toxicity induced by N-methyl-D-aspartate (NMDA) in cultured rat hippocampal neurons was studied.
To determine whether AIT-082 protected against neuronal toxicity induced by NMDA, and whether astrocytes might be involved, cultured astrocytes were exposed to AIT-082 for 6 hr. The drug was then removed and cultures were kept in fresh medium for the following 20 hr. This conditioned medium was then added to primary cultures of rat hippocampal neurons on the seventh day in vitro, immediately after they had been exposed to a toxic pulse of NMDA.
It was next evaluated whether the addition of conditioned medium (CM) deriving from astrocyte cultures treated with 100 μM AIT-082 generated protection against damage induced by a toxic pulse with 100 μM NMDA in cultured neurons.
The effects of NMDA are shown in FIG. 66A on cortical cells and in FIG. 66B for hippocampal cells.

Data set [2] deals with cultured neurons from rat cerebral cortex. Put plainly: NMDA-induced toxicity in cultured rat cortical neurons, astrocyte conditioned medium. Format: cell-based. The following applies: NMDA pulse 100 μM for 10 min, Trypan blue or LDH. The protocol:
In these experiments, cultured neurons were prepared from rat cerebral cortex. In these cultures the NMDA pulse (100 μM for 10 min) provoked about 80% neuronal death (measured by Trypan blue cell staining or LDH activity). Separately, cultured astrocytes were treated for 6 hours with AIT-082. Then, the medium containing the drug was replaced with fresh medium without the drug and the astrocyte cultures were maintained in this medium for the next 24 hours. This medium represented the CM and was added to neurons soon after the toxic pulse with NMDA. The addition of CM partly counteracted the toxic effects caused by NMDA, reducing the neuronal damage by about 50%. If the medium was boiled for 20 min at 100° C. prior to addition to NMDA-damaged neurons, it completely lost the protective activity. […] To verify whether the neuroprotection caused by AIT-082 was ascribable to the production of TGFβ2 or NGF, antibodies to TGFβ2 or to NGF (100 ng/ml) were added together with CM.
Conversely, when DPCPX (100 nm) was added to astrocyte cultures together with AIT-082, the neuroprotective effect of the resulting CM deriving from the culture of the astrocytes with AIT-082 was reduced by only 20%, as compared to the neuroprotective effect of CM derived from astrocytes exposed to AIT-082 alone (assumed as equal to 100%).

Data set [3] relates to rat caudate nuclei. Put plainly: GAD activity in rat caudate nuclei damaged by NMDA. The following applies: NMDA 25-300 nmoles infused unilaterally, maximal lesion, 8 to 10 days. Format: in vivo. As to the method:
The effect of AIT-082 on in vivo neuroprotection was also assessed by assaying for glutamic acid decarboxylase (GAD) activity.
GAD activity in rat caudate nuclei was damaged in vivo by NMDA. Increasing amounts of NMDA (25-300 nmoles) were unilaterally infused into caudate nuclei of rats. Eight to 10 days after the injections, glutarnic acid decarboxylase (GAD) activity was assayed, as an index of the loss of GABA-ergic neurons. NMDA produced a dose-dependent lesion, which at its maximal extension caused a reduction of GAD activity by 50% in comparison with that of contralateral sham-operated nuclei (control). […] The necrotic areas are in white, whereas the shadow is the surrounding edema GAD activity was evaluated by measuring the ex novo formation of [^3H]GABA from dissected striata exposed to 1 μCi of [^3H]glutamate for 1 hour at 37° C. GABA was assayed by HPLC with fluorescence detection and the [3H]label associated with GABA was measured.

The subject of data set [4] is Swiss Webster mice. Put plainly: Win-shift T-maze memory test, Swiss Webster mice. Format: in vivo. As to conditions: 90-second inter-trial interval, THA 1.25 mg/kg i.p. The protocol: Male Swiss Webster mice six months (young adult) and eleven months (old) of age, obtained from the National Institute on Aging, were maintained in individual cages, on a […] light/dark cycle with continuous access to water. Food was limited so that the mice stabilized at 80% of free feeding weight. Mice were weighed and handled daily for one week. The win-shift model was run as described in the literature and consists of a T-maze in which the correct response alternates after each correct trial. The interval between trials is varied and allows for the determination of the longest period between trials that a subject can remember the correct response on the previous trial. This allows the measure of the duration of the memory trace. […] The reward goal box is alternated after each correct trial. Ten trials per mouse are run each day. […] The latency time to leave the start box is recorded as a measure of motivation, the running time (the time from leaving the start box to reaching the goal box) is recorded as a measure of performance, and the number of correct responses as a measure of memory.
(§1) The drugs used in this example are 4-((3-(1,6-dihydro-6-oxo-9-purin-9-yl)-1-oxopropyl)amino) benzoic acid (AIT-082), as an exemplary potassium salt, tacrine hydrochloride (tetrahydroaminoacridine, THA, Sigma Chemical Co., St. Louis, Mo.), and physostigmine, hemisulfate salt (PHY, Sigma Chemical Co., St. Louis, Mo.). The drugs were dissolved in saline and prepared fresh daily. All injections were made at a volume of 0.1 ml/10 grams body weight. When testing drug effects, intraperitoneal (i.p.) injections of AIT-082 or THA were made one hour prior to the start of testing. Due to its shorter duration of action, PHY was injected 30 minutes prior to testing. Control subjects receive a similar injection of saline (vehicle).
To determine the duration of the memory trace, subjects were administered drug or saline and 30 minutes (PHY) or 1 hour (AIT-082 or THA) later they were given a single reference run with the milk reward in both goal boxes. After the indicated inter-trial delay, subjects were returned to the start box and given the first test trial with the milk reward only in the goal box opposite to the one entered on the previous correct trial. The subjects were given 10 trials with the reward alternating only after correct responses.
To determine if tolerance to the biological effects of AIT-082 developed, drug or saline was administered daily for 18 days prior to the testing in the standard win-shift paradigm.

Data set [5] concerns Swiss Webster mice. Put plainly: Locomotor activity (spontaneous movements), Swiss Webster mice. The class given is in vivo. As to conditions: THA 1.25 mg/kg. The protocol: The activity of AIT-082 was compared with tacrine (THA) and physostigmine (PHY), experimental anticholinesterase agents which enhance memory in animals. The drugs were also evaluated for their effects on locomotor activity. In the win-shift memory paradigm, AIT-082 was evaluated for its ability to induce tolerance after 18 days of drug administration. In addition AIT-082 was tested for its activity to modify learning in a modified T-maze discrimination task.
as §1

Regarding `CN[C@H](CC(=O)O)C(=O)O` [NMDA, N-methyl-D-aspartate], the “death of the cultured neurons” value in data set [1] is given as about 75%. For the same compound, in data set [1] (within 24 hours), the “Count of Dead Cells (Trypan Blue Staining)” value is reported as 401.4 ± 27.3 and the LDH came out at 262.8 ± 13.4 mOD/min. For the same compound, the neuronal death entry in data set [2] is recorded as “about 80%”. Moreover, in data set [3], the “reduction of GAD activity versus contralateral sham-operated nuclei” value amounted to 50%.
Consider `Nc1c2c(nc3ccccc13)CCCC2` [THA, tacrine hydrochloride, reference compound], for which, in data set [4], the “Win-shift Memory Test, Correct responses” value is reported as 7.1* Correct responses/10 trials. Moreover, the “Locomotor Activity” value in data set [5] was 671* Spontaneous movements per hour.
